Measurements: US6211158A, “Desazapurine-nucleotide derivatives, processes for the preparation thereof, pharmaceutical compositions containing them and the use thereof for nucleic acid sequencing and as antiviral agents” (Roche Diagnostics GmbH, priority 1987, dated 2001)

Legend:
[1] = Hydrolysis of the N-glycosidic bond in hydrochloric acid at 25° C., UV absorption at 258 nm (Example 29); format: physicochemical; conditions: for half-life: read-out: half life time T/2 of hydrolysis
Description: The stability of the N-glycosidic bond of 2',3'-didesoxynucleosides is bound up with the antiviral activity.
The hydrolysis of the bond was investigated at 25° C. in three different concentrations of hydrochloric acid. For this purpose, the UV absorption (Et) was measured at 258 nm. Via the absorption/time curve, there were determined the velocity constants of the hydrolysis (k) and the half life times (T/2) on the basis of the following equation:
k=1/t×ln(Eo -Eoo)/(Et -Eoo)
Eo being the absorption at time t=0 and Eoo being the absorption after complete termination of the reaction.
There were compared 2',3'-dideoxyadenosine (a) and 6-amino-8-aza-7-deaza-2',3'-dideoxy-9-β-D-ribofuranosylpurine (b) at 25° C.

[2] = Stability of the N-glycosidic bond under acidic conditions, UV-absorbance as a function of time (Example 30); format: physicochemical; parameters: key to stability towards hydrolysis (classified): classified as stable, when no hydrolysis occurred within the hydrolysis time of the corresponding purine-derivatives; conditions: for half-life: read-out: half life [t(1/2)] of hydrolysis
Description: The determination of the stability of the N-glycosidic bond was carried out under acidic conditions by measuring the UV-absorbance as a function of time. The compounds were classified as stable, when no hydrolysis occurred within the hydrolysis time of the corresponding purine-derivatives.
Table of kinetic data with respect to hydrolysis of […]

SMILES	half-life ([2]; 0.01 n hcl) [min]	stability towards hydrolysis (classified) ([2]; 0.01 N HCl)	stability towards hydrolysis (classified) ([2]; 0.1 N HCl)	stability towards hydrolysis (classified) ([2]; 1 N HCl)	further results
Nc1ncnc2c1cnn2[C@H]1CC[C@@H](CO)O1 [c^7 z^8 ddA, 6-Amino-8-aza-7-deaza-2',3'-dideoxy-9-β-D-ribofuranosylpurine]	280	–	–	–	velocity constant of the hydrolysis k ([1]; 0.01 N HCl): 0.0025 min⁻¹; half-life ([1]; 0.01 N HCl): 280 min; half-life ([1]; 0.1 N HCl): 20.4 min; half-life ([1]; 1 N HCl): 0.83 min; times more stable than (a) ([1]; compared with 2',3'-dideoxyadenosine (a), HCl): more than 10 times; half-life ([2]; 0.1 n hcl): 20.4 min
Nc1nc2c(cnn2[C@H]2CC[C@@H](CO)O2)c(=O)[nH]1 [c^7 z^8 ddG, 2-Amino-(2',3'-dideoxy-β-D-glyceropentofuranosyl)-1H-pyrazolo[3,4-d]pyrimidin-4-one]	135	–	–	–	–
Nc1nc2c(ncn2[C@H]2CC[C@@H](CO)O2)c(=O)[nH]1 [ddG, reference compound]	37	–	–	–	–

Further lines, with some results ahead:

half-life ([2]; 0.01 n hcl) [min]	stability towards hydrolysis (classified) ([2]; 0.01 N HCl)	stability towards hydrolysis (classified) ([2]; 0.1 N HCl)	stability towards hydrolysis (classified) ([2]; 1 N HCl)	SMILES	further results
–	stable	stable	stable	Nc1ncnc2c1ccn2[C@H]1CC[C@@H](CO)O1 [c^7 ddA, 4-Amino-7-(2',3'-dideoxy-β-D-glyceropentofuranosyl)-7H-pyrrolo[2,3-d]pyrimidine]	–
31.5	–	–	–	Nc1ncnc2c1ncn2[C@H]1CC[C@@H](CO)O1 [ddA, 2',3'-dideoxyadenosine, reference compound]	velocity constant of the hydrolysis k ([1]; 0.01 N HCl): 0.022 min⁻¹; half-life ([1]; 0.01 N HCl): 31.5 min; half-life ([1]; 0.1 N HCl): 1.9 min; half-life ([2]; 0.1 n hcl): 1.9 min
–	stable	stable	stable	Nc1nccc2c1ccn2[C@H]1CC[C@@H](CO)O1 [c^3 c^7 ddA, 6-amino-3,7-dideaza-2',3'-dideoxy-9-β-D-ribofuranosylpurine]	–
–	stable	stable	stable	Nc1nc2c(ccn2[C@H]2CC[C@@H](CO)O2)c(=O)[nH]1 [c^7 ddG, 2-Amino-7-deaza-2',3'-dideoxy-9-β-D-ribofuranosylpurine-6-one]	–
